US20140309192A1, “MODULATORS OF THE G PROTEIN-COUPLED MAS RECEPTOR AND THE TREATMENT OF DISORDERS RELATED THERETO” (ARENA PHARMACEUTICALS, INC., priority 2011, published 2014)
“Also recorded” adds a separate entry of the source.

What was measured:
rat Mas receptor = target: T1, rat Mas receptor (Rattus norvegicus, UniProt P12526); assay: HTRF IP1 assay, HEK293 cells expressing rat Mas receptor; assay type: cell-based; conditions: HTRF IP1 assay, rat Mas receptor (Table B.1); read-out: IC50
T1 construct: expressed in transfected cells; host or cells: HEK293 (ATCC CRL-1573)
T1 sequence (P12526 1-324): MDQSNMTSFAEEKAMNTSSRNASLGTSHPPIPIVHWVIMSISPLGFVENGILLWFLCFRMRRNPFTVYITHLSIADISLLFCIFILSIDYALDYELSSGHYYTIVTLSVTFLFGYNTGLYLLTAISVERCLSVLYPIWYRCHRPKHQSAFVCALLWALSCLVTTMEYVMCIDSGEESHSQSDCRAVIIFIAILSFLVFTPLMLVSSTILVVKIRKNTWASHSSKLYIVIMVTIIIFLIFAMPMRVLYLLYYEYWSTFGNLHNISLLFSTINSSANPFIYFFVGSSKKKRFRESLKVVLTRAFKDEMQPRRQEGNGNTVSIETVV
Text: (§1) Human and rat Mas receptors were either transiently or stably expressed in HEK293 cells. For transient transfections, human or rat Mas in pHM6 vector were transfected into HEK293 cells using Lipofectamine® (Invitrogen #18324-012). HEK293 cells transfected with empty pHM6 vector were used as a control. For generation of stable cell lines, cDNA expression plasmids encoding human or rat Mas genes and the neo^r gene were transfected into HEK293 cells (ATCC# CRL-1573) using Lipofectamine® (Invitrogen) according to the manufacturer's instructions. Stable receptor expressing pools were then generated over 3 weeks by standard techniques in the presence of 500 μg/mL Geneticin® (Gibco). Individual receptor stable pools were dilution cloned using standard techniques and clones were comparatively evaluated in inositol phosphate accumulation assays. Preferred clones were banked and cultured as needed. HEK293 cells were used as controls. The 384 well IP-One HTRF® Assay (Cisbio #62P1APEJ) was performed as described by the manufacturer's protocol. Cells were plated in at 100,000 cells per well in 15 μL DMEM (Gibco #11960) and incubated in a CO2 incubator at 37° C. for 2 h. Five μL of compounds diluted in 2× stimulation buffer plus 0.4% BSA (Sigma (#A3059) were added to each well and serial diluted IP1 standards (Cisbio #62IP1CDA) were also added to corresponding wells at this step. After the cells were incubated for 4 h in a CO2 incubator at 37° C., d2-labeled IP1 and cryptate-labeled anti-IP1 monoclonal antibody diluted in lysis buffer were added sequentially in 10 μL per well and the assay plates were kept in the dark at room temperature overnight. Ratiometric measurements of fluorescence emission at 665 nm and 620 nm were obtained using a Pherastar fluorometer (BMG Labtech). IP1 levels in each well were calculated according to the standard curves on each plate. IC50 values were obtained by fitting data to a nonlinear curve-fitting program (GraphPad Software, Inc., La Jolla Calif.).

human Mas receptor = target: T2, human Mas receptor (Homo sapiens, UniProt P04201); assay: HTRF IP1 assay, HEK293 cells expressing human Mas receptor; assay type: cell-based; conditions: HTRF IP1 assay, human Mas receptor (Table B.2); read-out: IC50
T2 construct: expressed in transfected cells; host or cells: HEK293 (ATCC CRL-1573)
T2 sequence (P04201 1-325): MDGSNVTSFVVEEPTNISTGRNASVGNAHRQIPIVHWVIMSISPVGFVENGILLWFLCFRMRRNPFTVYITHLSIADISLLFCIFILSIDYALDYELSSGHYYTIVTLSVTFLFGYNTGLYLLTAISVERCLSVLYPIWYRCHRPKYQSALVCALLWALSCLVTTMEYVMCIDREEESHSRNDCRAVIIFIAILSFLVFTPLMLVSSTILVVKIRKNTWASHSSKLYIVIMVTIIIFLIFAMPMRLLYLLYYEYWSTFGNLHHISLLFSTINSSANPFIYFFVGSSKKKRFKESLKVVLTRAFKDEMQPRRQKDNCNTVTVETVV
Text: as §1

[1] = system: isolated perfused rat hearts; assay: Ex vivo coronary flow, Langendorff perfused isolated rat hearts; conditions: pretreatment 10 min: AR244555 5 μM or U-73122 0.5 μM
Experimental: Coronary flow was measured in male Mas^−/− and Mas^+/+ mice, and in male Sprague-Dawley rats using Langendorff perfused isolated hearts. Freshly isolated hearts were placed on a Langendorff apparatus (Harvard Apparatus) and perfused at a constant pressure of 80 mmHg with a modified Krebs-Henseleit buffer solution (Sigma K3753) and aerated with 95% oxygen and 5% carbon dioxide, pH 7.35-7.4. The temperature was maintained at 37° C. by surrounding the heart with a water-heated glassware chamber. Coronary flow was measured using a flow measurement system (Harvard Apparatus) which included the transit time flow meter and a flow probe built into an adaptor block located at the perfusate inflow port. Data were recorded continuously using an ISOHEART data acquisition system (Harvard Apparatus). After a 20-min equilibration period, Mas compounds were added to the perfusion buffer reservoir at the desired concentration (agonist AR234960 at 1 μM, or inverse agonist AR244555 at 5 μM) and coronary flow was recorded for 10 min
To determine the role of the Mas-Gq-PLC pathway in regulating coronary flow, the Mas inverse agonist AR244555 (5 μM) or the PLC inhibitor U-73122 (0.5 μM) was added to the perfusion buffer for 10 min and then the agonist AR234960 (1 μM) was added to the perfusion buffer. Coronary flow was recorded for another 10 min Changes in coronary flow induced by AR234960 were calculated as percentage of the coronary flow at 10 min following AR234960 treatment, relative to the coronary flow measured immediately prior to addition of AR234960. This protocol allowed for measurement of agonist mediated vasoconstrictor activity, and accounted for changes in baseline coronary flow due to inverse agonist treatment alone.
To determine whether Mas agonist-induced changes in coronary flow were endothelium-dependent, the responses in Langendorff perfused hearts were measured after chemical removal of endothelium with sodium deoxycholate. After a 20-min equilibration period, sodium deoxycholate was added to the perfusion buffer at 0.2 mg/mL for 3 min and then washed out for 10 min Mas compounds were added and coronary flow was recorded for 10 min Adenosine (1 μM), a coronary vasodilator that targets the endothelium, was used as a control to verify effective removal of endothelium.

Row | Compound | IC50 (rat Mas receptor) | IC50 (human Mas receptor) | decrease in coronary flow induced by AR234960 (1 μM) after pretreatment [1]
1 | O=C(O)C[C@H]1CNCCN1Cc1ccc(C(=O)Nc2ccc(Cl)cc2N2CCN(CCC(F)(F)F)CC2)c(F)c1F [Compound 231, (S)-2-(1-(4-(4-Chloro-2-(4-(3,3,3-trifluoropropyl)piperazin-1-yl)phenylcarbamoyl)-2,3-difluorobenzyl)piperazin-2-yl)acetic acid] | 50 nM | 74.3 nM | –
2 | O=C(Nc1ccc(Cl)cc1N1CCN(CCC(F)(F)F)CC1)c1ccc(N2CCCC2)cc1 [Compound 41, N-(4-Chloro-2-(4-(3,3,3-trifluoropropyl)piperazin-1-yl)phenyl)-4-(pyrrolidin-1-yl)benzamide] | 582 nM | – | –
3 | O=C(Nc1ccc(Cl)cc1N1CCN(CCC(F)(F)F)CC1)c1ccc(CN2CCC[C@@H](CO)C2)c(F)c1F [Compound 252, (R)—N-(4-Chloro-2-(4-(3,3,3-trifluoropropyl)piperazin-1-yl)phenyl)-2,3-difluoro-4-((3-(hydroxymethyl)piperidin-1-yl)methyl)benzamide] | 115 nM | – | –
4 | O=C(Nc1ccc(Cl)cc1N1CCN(CCC(F)(F)F)CC1)c1ccc(CN(CCO)CCO)cc1F [Compound 144] | 108 nM | – | –
5 | O=C(Nc1ccc(Cl)cc1N1CCN(CCC(F)(F)F)CC1)c1ccc(CNC2CCCCNC2=O)cc1F (stereo not drawn) [Compound 79, N-(4-Chloro-2-(4-(3,3,3-trifluoropropyl)piperazin-1-yl)phenyl)-2-fluoro-4-((2-oxoazepan-3-ylamino)methyl)benzamide] | 133 nM | – | –
6 | C[C@@H](CO)NC(=O)C1CNCCN1Cc1ccc(C(=O)Nc2ccc(Cl)cc2N2CCN(CCC(F)(F)F)CC2)c(F)c1F (stereo partly drawn) [Compound 242, 1-(4-(4-Chloro-2-(4-(3,3,3-trifluoropropyl)piperazin-1-yl)phenylcarbamoyl)-2,3-difluorobenzyl)-N—((S)-1-hydroxypropan-2-yl)piperazine-2-carboxamide] | 315 nM | – | –
7 | O=C(Nc1ccc(Cl)cc1N1CCN(CCC(F)(F)F)CC1)c1ccc(CN2CCN3CCCC3C2)cc1F (stereo not drawn) [Compound 157, N-(4-Chloro-2-(4-(3,3,3-trifluoropropyl)piperazin-1-yl)phenyl)-2-fluoro-4-((hexahydropyrrolo[1,2-a]pyrazin-2(1H)-yl)methyl)benzamide] | 184 nM | – | –
8 | O=C(Nc1ccc(Cl)cc1N1CCN(CCC(F)(F)F)CC1)c1ccc(CN(CCO)CCO)c(F)c1F [Compound 178] | 44.8 nM | 34.4 nM | –
9 | CN(CC(=O)O)Cc1ccc(C(=O)Nc2ccc(Cl)cc2N2CCN(CCC(F)(F)F)CC2)c(F)c1F [Compound 210, 2-((4-(4-Chloro-2-(4-(3,3,3-trifluoropropyl)piperazin-1-yl)phenylcarbamoyl)-2,3-difluorobenzyl)(methyl)amino)acetic acid] | 68 nM | – | –
10 | O=C(Nc1ccc(Cl)cc1N1CCN(CCC(F)(F)F)CC1)c1ccc2c(c1)CN(CCCO)CC2 [Compound 16, N-(4-Chloro-2-(4-(3,3,3-trifluoropropyl)piperazin-1-yl)phenyl)-2-(3-hydroxypropyl)-1,2,3,4-tetrahydroisoquinoline-7-carboxamide] | 316 nM | – | –
11 | C[C@@H](O)CNCc1ccc(C(=O)Nc2ccc(Cl)cc2N2CCN(CCC(F)(F)F)CC2)c(F)c1 [Compound 130, (R)—N-(4-Chloro-2-(4-(3,3,3-trifluoropropyl)piperazin-1-yl)phenyl)-2-fluoro-4-((2-hydroxypropylamino)methyl)benzamide] | 252 nM | – | –
12 | CC(C)(C)OC(=O)NCC[C@H](NCc1ccc(C(=O)Nc2ccc(Cl)cc2N2CCN(CCC(F)(F)F)CC2)c(F)c1F)C(=O)O [Compound 221, (S)-4-(tert-Butoxycarbonylamino)-2-(4-(4-chloro-2-(4-(3,3,3-trifluoropropyl)piperazin-1-yl)phenylcarbamoyl)-2,3-difluorobenzylamino)butanoic acid] | 157 nM | – | –
13 | COc1ccc2c(c1)CC[C@@H]1[C@@H]2CC[C@]2(C)[C@@H](NCCCCCCN3C(=O)C=CC3=O)CC[C@@H]12 [Compound U-73122, 1-(6-((8R,9S,13S,14S,17S)-3-methoxy-13-methyl-7,8,9,11,12,13,14,15,16,17-decahydro-6H-cyclopenta[a]phenanthren-17-ylamino)hexyl)-1H-pyrrole-2,5-dione] | – | – | blocked the decrease; also recorded: prevented the decrease
14 | N[C@@H]1CCCN(Cc2ccc(C(=O)Nc3ccc(Cl)cc3N3CCN(CCC(F)(F)F)CC3)c(F)c2)C1 [Compound 90, (R)-4-((3-Aminopiperidin-1-yl)methyl)-N-(4-chloro-2-(4-(3,3,3-trifluoropropyl)piperazin-1-yl)phenyl)-2-fluorobenzamide] | 704 nM | – | –
15 | O=C1CN(Cc2ccc(C(=O)Nc3cc(Cl)c(Cl)cc3N3CCN(CCC(F)(F)F)CC3)c(F)c2F)CCN1 [Compound 188, N-(4,5-Dichloro-2-(4-(3,3,3-trifluoropropyl)piperazin-1-yl)phenyl)-2,3-difluoro-4-((3-oxopiperazin-1-yl)methyl)benzamide] | 29 nM | – | –
16 | C[C@H](NCc1ccc(C(=O)Nc2ccc(Cl)cc2N2CCN(CCC(F)(F)F)CC2)c(F)c1)C(N)=O [Compound 67, (S)-4-((1-Amino-1-oxopropan-2-ylamino)methyl)-N-(4-chloro-2-(4-(3,3,3-trifluoropropyl)piperazin-1-yl)phenyl)-2-fluorobenzamide] | 82 nM | – | –
17 | O=C(Nc1ccc(Cl)cc1N1CCN(CCC(F)(F)F)CC1)c1ccc(CN2CCS(=O)(=O)CC2)c(F)c1F [Compound 168, N-(4-Chloro-2-(4-(3,3,3-trifluoropropyl)piperazin-1-yl)phenyl)-2,3-difluoro-4-((1,1-dioxo-thiomorpholin-4-yl)methyl)benzamide] | 27.2 nM | – | –
18 | COC(=O)[C@H](CN)NCc1ccc(C(=O)Nc2ccc(Cl)cc2N2CCN(CCC(F)(F)F)CC2)c(F)c1 [Compound 198, (S)-Methyl 3-amino-2-(4-(4-chloro-2-(4-(3,3,3-trifluoropropyl)piperazin-1-yl)phenylcarbamoyl)-3-fluorobenzylamino)propanoate] | 173 nM | – | –
19 | CCN1CCCCC(NCc2ccc(C(=O)Nc3ccc(Cl)cc3N3CCN(CCC(F)(F)F)CC3)c(F)c2)C1=O (stereo not drawn) [Compound 117, N-(4-Chloro-2-(4-(3,3,3-trifluoropropyl)piperazin-1-yl)phenyl)-4-((1-ethyl-2-oxoazepan-3-ylamino)methyl)-2-fluorobenzamide] | 373 nM | – | –
